Experiments:
[1] = molecular target: T1, recombinant Top1 (Homo sapiens, UniProt P11387); experiment: Top1-mediated DNA cleavage assay; format: biochemical; conditions: semiquantitative scale relative to 1 μM MJ-III-65 (6) and 1 μM camptothecin (1)
T1 sequence (P11387 1-765): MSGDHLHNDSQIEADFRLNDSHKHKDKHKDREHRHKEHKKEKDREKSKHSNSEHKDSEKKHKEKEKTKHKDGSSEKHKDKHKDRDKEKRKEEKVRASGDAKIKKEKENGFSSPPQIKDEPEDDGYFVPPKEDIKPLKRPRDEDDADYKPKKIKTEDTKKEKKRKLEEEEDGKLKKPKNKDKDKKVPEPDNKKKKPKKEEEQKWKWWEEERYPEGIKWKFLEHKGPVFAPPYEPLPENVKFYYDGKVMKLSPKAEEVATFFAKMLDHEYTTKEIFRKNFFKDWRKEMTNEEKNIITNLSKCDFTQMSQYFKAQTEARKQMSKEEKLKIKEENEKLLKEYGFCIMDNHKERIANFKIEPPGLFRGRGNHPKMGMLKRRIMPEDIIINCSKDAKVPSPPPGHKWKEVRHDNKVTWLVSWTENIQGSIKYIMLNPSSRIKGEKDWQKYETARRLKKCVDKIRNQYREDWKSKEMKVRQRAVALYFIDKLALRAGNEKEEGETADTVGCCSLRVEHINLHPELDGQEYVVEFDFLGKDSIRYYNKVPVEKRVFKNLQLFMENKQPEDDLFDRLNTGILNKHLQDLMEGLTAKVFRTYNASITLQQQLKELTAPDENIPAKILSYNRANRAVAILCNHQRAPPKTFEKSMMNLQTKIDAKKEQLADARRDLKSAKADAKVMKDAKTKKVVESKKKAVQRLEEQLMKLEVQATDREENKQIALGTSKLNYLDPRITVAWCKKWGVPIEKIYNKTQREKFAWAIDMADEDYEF

[2] = test system: HOP-62; conditions: human, HOP-62 lung tumor cells
[3] = test system: HCT-116; conditions: human, HCT-116 colon tumor cells
[4] = test system: OVCAR-3; conditions: human, OVCAR-3 ovarian tumor cells
[5] = test system: DU-145; conditions: human, DU-145 prostate tumor cells
[6] = test system: NCI-60 human tumor cell lines; conditions: NCI-60 human tumor cell lines (all cell lines tested)

O=C1c2ccccc2-c2c1c1ccc(Cl)cc1c(=O)n2CCCn1ccnc1 [compound 8]
enzyme inhibitory activity Top1 (compound-induced DNA cleavage score) [1]: +++ | GI50 [2]: 186 nM | GI50 [3]: 107 nM | GI50 [4]: 407 nM | GI50 [5]: 309 nM | GI50 [6]: 229 nM
